According to the supplement of paper PMC13380429:

Assays:
Conditions in all cases: 72 h
[1] = tested on: U2OS; experiment: cell viability relative to DMSO; higher = less toxic
[2] = tested on: Calu-3; experiment: as above
[3] = tested on: Vero E6; experiment: as above
[4] = tested on: Caco-2; experiment: as above
[5] = tested on: HepG2; experiment: as above
[6] = tested on: U2OS; experiment: relative viability EC50 (midpoint between 100% and the lowest measured viability); higher = less toxic
[7] = tested on: Calu-3; experiment: as above
[8] = tested on: Vero E6; experiment: as above
[9] = tested on: Caco-2; experiment: as above
[10] = tested on: HepG2; experiment: as above
[11] = tested on: U2OS; experiment: drug sensitivity score (DSS) for viability; higher = more toxic; extreme values may be limits of the assay
[12] = tested on: Calu-3; experiment: as above
[13] = tested on: Vero E6; experiment: as above
[14] = tested on: Caco-2; experiment: as above
[15] = tested on: HepG2; experiment: as above

SMILES | cell viability ([1]; 1 nM) [%] | cell viability ([1]; 10 nM) [%] | cell viability ([1]; 100 nM) [%] | cell viability ([1]; 1000 nM) [%] | cell viability ([1]; 10000 nM) [%] | cell viability ([2]; 1 nM) [%] | cell viability ([2]; 10 nM) [%] | cell viability ([2]; 100 nM) [%] | cell viability ([2]; 1000 nM) [%] | cell viability ([2]; 10000 nM) [%] | cell viability ([3]; 1 nM) [%] | cell viability ([3]; 10 nM) [%] | cell viability ([3]; 100 nM) [%] | cell viability ([3]; 1000 nM) [%] | cell viability ([3]; 10000 nM) [%] | cell viability ([4]; 1 nM) [%] | cell viability ([4]; 10 nM) [%] | cell viability ([4]; 100 nM) [%] | cell viability ([4]; 1000 nM) [%] | cell viability ([4]; 10000 nM) [%] | cell viability ([5]; 1 nM) [%] | cell viability ([5]; 10 nM) [%] | cell viability ([5]; 100 nM) [%] | cell viability ([5]; 1000 nM) [%] | cell viability ([5]; 10000 nM) [%] | relative viability EC50 [6] [µM] | relative viability EC50 [7] [µM] | relative viability EC50 [8] [µM] | relative viability EC50 [9] [µM] | relative viability EC50 [10] [µM] | drug sensitivity score [11] | drug sensitivity score [12] | drug sensitivity score [13] | drug sensitivity score [14] | drug sensitivity score [15]
CC1(C)OC2(C)C(O)CC1CC2O (stereo not given) [epomediol] | 108 | 97.3 | 98.1 | 97.7 | 102 | 97.1 | 82.6 | 97.5 | 90.9 | 105 | 98.7 | 97 | 98 | 98.7 | 94 | 98.7 | 92.1 | 98.2 | 95 | 101 | 99.9 | 98.1 | 96.2 | 112 | 101 | > 10 | > 10 | > 10 | > 10 | > 10 | 0 | 0 | 0 | 0 | 0
CC(C)C[C@H](NC(=O)[C@@H](O)[C@H](N)Cc1ccccc1)C(=O)O [ubenimex] | 97 | 105 | 103 | 99.8 | 98.5 | 103 | 96 | 104 | 105 | 104 | 101 | 98.8 | 102 | 98.7 | 101 | 98.2 | 108 | 95.9 | 103 | 103 | 105 | 93.4 | 111 | 102 | 95.4 | > 10 | > 10 | > 10 | > 10 | > 10 | 0 | 0 | 0 | 0 | 0
CCOC(=O)[C@@H](N)Cc1ccc(O)c(O)c1 [etilevodopa] | 92.6 | 95.7 | 98.3 | 96.3 | 99.3 | 103 | 95.6 | 92.2 | 88.8 | 94 | 101 | 89.7 | 89.7 | 98.9 | 111 | 94 | 107 | 84.2 | 85.8 | 92.8 | 86.2 | 96 | 88.1 | 99.1 | 92.5 | > 10 | > 10 | > 10 | > 10 | > 10 | 0 | 0.3 | 0 | 2.8 | 0
O=C(O)CC(S)C(=O)O (stereo not given) [mercaptosuccinic-acid] | 103 | 104 | 94.3 | 102 | 96.2 | 102 | 101 | 93.5 | 94.7 | 97.7 | 96.1 | 99.8 | 96.8 | 97.4 | 99.3 | 94 | 106 | 91.2 | 95.7 | 99.7 | 93.1 | 93.7 | 94.9 | 96.3 | 92.7 | > 10 | > 10 | > 10 | > 10 | > 10 | 0 | 0 | 0 | 0 | 0
OC[C@@H](O)[C@H]1O[C@@H]2O[C@H](C(Cl)(Cl)Cl)O[C@@H]2[C@H]1O [chloralose] | 98.1 | 106 | 98.5 | 99.6 | 98.4 | 93.7 | 93.8 | 95.5 | 104 | 98.8 | 98.1 | 99 | 98.8 | 95.9 | 97.8 | 101 | 103 | 80.5 | 101 | 87.4 | 98.1 | 103 | 102 | 98.9 | 89.2 | > 10 | > 10 | > 10 | > 10 | > 10 | 0 | 0 | 0 | 0 | 0
